The target of series [1] is human VMAT2 (Homo sapiens (Human), UniProt Q05940). As to the kind of experiment: VMAT2 radioligand binding, 3H-dihydrotetrabenazine competition on human platelet homogenate. As to conditions: 10 nM 3H-dihydrotetrabenazine, human platelet homogenate, 25° C., 90 minutes; read-out: VMAT2 Ki. A digest of the protocol:
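Human platelet homogenate (30 μg membrane protein/well) in DPBS with 1 mM EDTA, pH 7.4; twelve test-compound concentrations competed against 10 nM ³H-dihydrotetrabenazine. Incubated 90 min at 25 °C, bound radioligand collected by filtration on PEI-pretreated glass-fibre filters and counted by scintillation; Ki derived.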

Series [2] is described as follows: Stability of compounds in human liver microsomes. The format is in vitro ADME. As to conditions: for CLint scaled at 0.5 μM / half-life at 0.5 μM: both sexes, pH 7.4; for CLint scaled at 0.5 μM: liver microsomes, calculated from HLM half-life, read-out: HLM Scaled Intrinsic Clearance; for CLint scaled at 0.5 μM / Predicted Max. Bioavailability (% F) / HLM Predicted Systemic Clearance: human; for half-life at 0.5 μM: 0.5 μM compound, 0.5 mg/mL human liver microsomes, 37° C., maxed at 420 minutes, read-out: HLM Elimination half-life (t1/2, min); for Predicted Max. Bioavailability (% F): predicted from HLM data; for HLM Predicted Systemic Clearance: scaled from HLM half-life (Obach method). As to the method:
A test compound (0.5 μM) was incubated with pooled mixed gender liver microsomes from humans (0.5 mg/mL total protein) at 37° C. in the presence of an NADPH-generating system containing 50 mM, pH 7.4 potassium phosphate buffer, 3 mM magnesium chloride, 1 mM EDTA, 1 mM NADP, 5 mM glusose-6-phosphate, and 1 Unit/mL glucose-6-phosphate dehydrogenase. All concentrations were relative to the final incubation volume of 125 μL. Incubations were conducted at 37° C. for 0, 5, 10, 20, 40, and 60 minutes in a water bath and terminated by rapid mixing with 150 μL of ice-cold acetonitrile containing internal standard. Precipitated proteins were removed by centrifugation prior to LC-MS/MS analysis. Aliquots of the resulting supernatant fractions were analyzed by LC-MS/MS monitoring for depletion of parent compound. The resultant peak area ratio versus time data was fitted to a non-linear regression using XLfit Scientific Curve Fitting Software (IDBS Ltd., Surrey, UK) and the elimination half-life (t1/2, min) was calculated from the slope. […] Additional values calculated included predicted extraction ratio and predicted maximum bioavailability.

SMILES strings stand for the structures.

Sequence of human VMAT2 (Q05940 whole entry): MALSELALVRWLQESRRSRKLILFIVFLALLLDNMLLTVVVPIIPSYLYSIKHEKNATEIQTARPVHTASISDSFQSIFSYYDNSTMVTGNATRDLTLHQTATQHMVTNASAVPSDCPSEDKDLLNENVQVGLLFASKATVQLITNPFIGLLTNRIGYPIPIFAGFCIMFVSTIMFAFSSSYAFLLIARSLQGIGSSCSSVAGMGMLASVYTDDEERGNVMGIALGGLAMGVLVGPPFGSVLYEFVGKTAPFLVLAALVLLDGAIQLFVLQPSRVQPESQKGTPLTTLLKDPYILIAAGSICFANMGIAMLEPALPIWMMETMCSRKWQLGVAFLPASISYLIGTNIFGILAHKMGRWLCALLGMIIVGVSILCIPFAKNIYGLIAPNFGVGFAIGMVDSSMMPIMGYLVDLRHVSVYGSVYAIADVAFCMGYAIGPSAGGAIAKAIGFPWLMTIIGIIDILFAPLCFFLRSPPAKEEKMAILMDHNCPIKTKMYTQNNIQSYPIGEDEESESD

For orientation: Ki means the equilibrium dissociation constant of an inhibitor or competing ligand from its target. For `COc1cc2c(cc1OCC1COC1)CCN1C[C@@H](CC(C)(C)C)[C@H](O)C[C@H]21` [Compound 4-22, (2R,3R,11bR)-3-(2,2-dimethylpropyl)-10-methoxy-9-(oxetan-3-ylmethoxy)-1H,2H,3H,4H,6H,7H,11bH-pyrido[2,1-a]isoquinolin-2-ol], in series [1], the Ki was determined as 14 nM. In addition, in series [2], the CLint scaled at 0.5 μM is 9.6 mL/min/kg, the half-life at 0.5 μM is 130 min, the “Predicted Max. Bioavailability (% F)” value was 68 % F and the “HLM Predicted Systemic Clearance” value was 6.49 mL/min/kg.

Turning to `COc1cc2c(cc1OCC1CCC1)CCN1C[C@@H](CC(C)(C)C)[C@H](O)C[C@H]21` [Compound 4-119, (2R,3R,11bR)-9-(cyclobutylmethoxy)-3-(2,2-dimethylpropyl)-10-methoxy-1H,2H,3H,4H,6H,7H,11bH-pyrido[2,1-a]isoquinolin-2-ol], in series [1], the Ki is 0.29 nM. For the same molecule, in series [2], the CLint scaled at 0.5 μM was 134 mL/min/kg, the half-life at 0.5 μM turned out to be 9 min, the “Predicted Max. Bioavailability (% F)” value is given as 13.00 % F and the “HLM Predicted Systemic Clearance” value is 17.4 mL/min/kg.

With `COc1cc2c(cc1OCCCC(F)(F)F)CCN1C[C@@H](CC(C)(C)C)[C@H](O)C[C@H]21` [Compound 4-120, (2R,3R,11bR)-3-(2,2-dimethylpropyl)-10-methoxy-9-(4,4,4-trifluorobutoxy)-1H,2H,3H,4H,6H,7H,11bH-pyrido[2,1-a]isoquinolin-2-ol], the Ki in series [1] stood at 1.5 nM. Also, in series [2], the CLint scaled at 0.5 μM is at most 2.97 mL/min/kg, the half-life at 0.5 μM is at least 420 min, the “Predicted Max. Bioavailability (% F)” value was at least 87 % F and the “HLM Predicted Systemic Clearance” value was at most 2.59 mL/min/kg.

For `COc1cc2c(cc1OCc1cocn1)CCN1C[C@@H](CC(C)(C)C)[C@H](O)C[C@H]21` [Compound 4-75, (2R,3R,11bR)-3-(2,2-dimethylpropyl)-10-methoxy-9-(1,3-oxazol-4-ylmethoxy)-1H,2H,3H,4H,6H,7H,11bH-pyrido[2,1-a]isoquinolin-2-ol], in series [1], the Ki came out at 76 nM. In series [2], the CLint scaled at 0.5 μM is 11.9 mL/min/kg, the half-life at 0.5 μM worked out at 104 min, the “Predicted Max. Bioavailability (% F)” value is given as 63 % F and the “HLM Predicted Systemic Clearance” value was 7.48 mL/min/kg.

In the case of `COc1cc2c(cc1OCC(F)(F)Cl)CCN1C[C@@H](CC(C)(C)C)[C@H](O)C[C@H]21` [Compound 4-65, (2R,3R,11bR)-9-(2-chloro-2,2-difluoroethoxy)-3-(2,2-dimethylpropyl)-10-methoxy-1H,2H,3H,4H,6H,7H,11bH-pyrido[2,1-a]isoquinolin-2-ol], the Ki in series [1] worked out at 8.7 nM. Moreover, in series [2], the CLint scaled at 0.5 μM is 5.5 mL/min/kg, the half-life at 0.5 μM came to 227 min, the “Predicted Max. Bioavailability (% F)” value was 78 % F and the “HLM Predicted Systemic Clearance” value is 4.31 mL/min/kg.

Turning to `COc1cc2c(cc1OCC1CC(O)(C(F)(F)F)C1)CCN1C[C@@H](CC(C)(C)C)[C@H](O)C[C@H]21` (stereo partly drawn) [Compound 4-78, (2R,3R,11bR)-3-(2,2-dimethylpropyl)-9-{[3-hydroxy-3-(trifluoro-methyl)cyclobutyl]methoxy}-10-methoxy-1H,2H,3H,4H,6H,7H,11bH-pyrido[2,1-a]isoquinolin-2-ol], the Ki in series [1] came to 92 nM. In series [2], the CLint scaled at 0.5 μM was 6.41 mL/min/kg, the half-life at 0.5 μM was 195 min, the “Predicted Max. Bioavailability (% F)” value is reported as 76 % F and the “HLM Predicted Systemic Clearance” value was 4.86 mL/min/kg.

For `COc1cc2c(cc1OCCc1ccc(F)cc1)CCN1C[C@@H](CC(C)(C)C)[C@H](O)C[C@H]21` [Compound 4-117, (2R,3R,11bR)-3-(2,2-dimethylpropyl)-9-[2-(4-fluorophenyl)ethoxy]-10-methoxy-1H,2H,3H,4H,6H,7H,11bH-pyrido[2,1-a]isoquinolin-2-ol], in series [1], the Ki stood at 2.2 nM. Moreover, in series [2], the CLint scaled at 0.5 μM is 112 mL/min/kg, the half-life at 0.5 μM was found to be 11 min, the “Predicted Max. Bioavailability (% F)” value is 15 % F and the “HLM Predicted Systemic Clearance” value was 16.98 mL/min/kg.

With `COc1cc2c(cc1OCCOCC#N)CCN1C[C@@H](CC(C)(C)C)[C@H](O)C[C@H]21` [Compound 4-70, 2-(2-{[(2R,3R,11bR)-3-(2,2-dimethylpropyl)-2-hydroxy-10-methoxy-1H,2H,3H,4H,6H,7H,11bH-pyrido[2,1-a]isoquinolin-9-yl]oxy}ethoxy)acetonitrile], the Ki in series [1] amounted to 36 nM. Also, in series [2], the CLint scaled at 0.5 μM was 11.4 mL/min/kg, the half-life at 0.5 μM was determined as 110 min, the “Predicted Max. Bioavailability (% F)” value was 64 % F and the “HLM Predicted Systemic Clearance” value was 7.25 mL/min/kg.

As to `COc1cc2c(cc1OCCC(F)(F)F)CCN1C[C@@H](CC(C)(C)C)[C@@H](O)C[C@H]21` [Compound 4-12, (2S,3R,11bR)-3-(2,2-dimethylpropyl)-10-methoxy-9-(3,3,3-trifluoropropoxy)-1H,2H,3H,4H,6H,7H,11bH-pyrido[2,1-a]isoquinolin-2-ol], the Ki in series [1] was 3.4 nM. Also, in series [2], the CLint scaled at 0.5 μM is at most 2.97 mL/min/kg, the half-life at 0.5 μM is at least 420 min, the “Predicted Max. Bioavailability (% F)” value is on record as at least 87 % F and the “HLM Predicted Systemic Clearance” value is at most 2.59 mL/min/kg.

For `COc1cc2c(cc1OCC13CC(C(F)(F)F)(C1)C3)CCN1C[C@@H](CC(C)(C)C)[C@H](O)C[C@H]21` [Compound 4-67, (2R,3R,11bR)-3-(2,2-dimethylpropyl)-10-methoxy-9-{[3-(trifluoromethyl)bi-cyclo[1.1.1]pentan-1-yl]methoxy}-1H,2H,3H,4H,6H,7H,11bH-pyrido[2,1-a]isoquinolin-2-ol], the Ki in series [1] came out at 14 nM. For the same molecule, in series [2], the CLint scaled at 0.5 μM was at most 2.97 mL/min/kg, the half-life at 0.5 μM is at least 420 min, the “Predicted Max. Bioavailability (% F)” value is on record as at least 87 % F and the “HLM Predicted Systemic Clearance” value is at most 2.59 mL/min/kg.

With `COc1cc2c(cc1OC[C@H](C)OC)CCN1C[C@@H](CC(C)(C)C)[C@H](O)C[C@H]21` [Compound 4-92, (2R,3R,11bR)-3-(2,2-dimethylpropyl)-10-methoxy-9-[(2S)-2-methoxypropoxy]-1H,2H,3H,4H,6H,7H,11bH-pyrido[2,1-a]isoquinolin-2-ol], the Ki in series [1] amounted to 51 nM. Moreover, in series [2], the CLint scaled at 0.5 μM is 25.5 mL/min/kg, the half-life at 0.5 μM worked out at 49 min, the “Predicted Max. Bioavailability (% F)” value is reported as 44 % F and the “HLM Predicted Systemic Clearance” value was 11.2 mL/min/kg.

For the molecule `CCOc1cc2c(cc1OC)[C@H]1C[C@@H](O)[C@H](CC(C)(C)C)CN1CC2` [Compound 4-17, (2R,3R,11bR)-3-(2,2-dimethylpropyl)-9-ethoxy-10-methoxy-1H,2H,3H,4H,6H,7H,11bH-pyrido[2,1-a]isoquinolin-2-ol], the Ki in series [1] was 1.1 nM. Besides, in series [2], the CLint scaled at 0.5 μM is 32.9 mL/min/kg, the half-life at 0.5 μM was 38 min, the “Predicted Max. Bioavailability (% F)” value was 38 % F and the “HLM Predicted Systemic Clearance” value is 12.44 mL/min/kg.

Consider `COc1cc2c(cc1OCc1ccon1)CCN1C[C@@H](CC(C)(C)C)[C@H](O)C[C@H]21` [Compound 4-69, (2R,3R,11bR)-3-(2,2-dimethylpropyl)-10-methoxy-9-(1,2-oxazol-3-ylmethoxy)-1H,2H,3H,4H,6H,7H,11bH-pyrido[2,1-a]isoquinolin-2-ol], for which, in series [1], the Ki is 32 nM. Besides, in series [2], the CLint scaled at 0.5 μM is 15.5 mL/min/kg, the half-life at 0.5 μM is 80 min, the “Predicted Max. Bioavailability (% F)” value is 56 % F and the “HLM Predicted Systemic Clearance” value was 8.74 mL/min/kg.
